Source: US12365696B2, “Small-molecule focal adhesion kinase (FAK) inhibitors” (DANA-FARBER CANCER INSTITUTE, INC., priority 2019, dated 2025)
Like-named read-outs stand apart in the source and are kept apart here.

Key:
Assay in all cases: KINOMEscan
Format in all cases: binding
LZK = LZK (Homo sapiens (Human), UniProt O43283); conditions: 10000 nM, read-out: Percent Control
SgK110 = SgK110 (Homo sapiens (Human), UniProt P0C264); conditions: SgK110, 10000 nM; read-out: Percent Control
PIM1 = PIM1 (Homo sapiens (Human), UniProt P11309); conditions: PIM1, 10000 nM; read-out: Percent Control
RDGFRB = RDGFRB (Homo sapiens (Human), UniProt P09619); conditions: 10000 nM, read-out: Percent Control
SIK2 = SIK2 (Homo sapiens (Human), UniProt Q9H0K1); conditions: SIK2, 10000 nM; read-out: Percent Control
PRKD3 = PRKD3 (Homo sapiens (Human), UniProt O94806); conditions: PRKD3, 10000 nM; read-out: Percent Control
INSR = INSR (Homo sapiens (Human), UniProt P06213); conditions: 10000 nM, read-out: Percent Control
[1] = biological target: ABL1(Q252H)-phosphorylated (Homo sapiens (Human), UniProt P00519, Q252H); conditions: 10000 nM, read-out: Percent Control
PFTAIRE2 = PFTAIRE2 (Homo sapiens (Human), UniProt Q96Q40); conditions: PFTAIRE2, 10000 nM; read-out: Percent Control
MRCKA = MRCKA (Homo sapiens (Human), UniProt Q5VT25); conditions: 10000 nM, read-out: Percent Control
IKK-epsilon = IKK-epsilon (Homo sapiens (Human), UniProt Q14164); conditions: 10000 nM, read-out: Percent Control
[2] = biological target: ABL1(T315I)-phosphorylated (Homo sapiens (Human), UniProt P00519, T315I); conditions: 10000 nM, read-out: Percent Control
GSK3A = GSK3A (Homo sapiens (Human), UniProt P49840); conditions: 10000 nM, read-out: Percent Control
RET(V804M) = RET(V804M) (Homo sapiens (Human), UniProt P07949, V804M); conditions: 10000 nM, read-out: Percent Control
TGFBR2 = TGFBR2 (Homo sapiens (Human), UniProt P37173); conditions: TGFBR2, 10000 nM; read-out: Percent Control
LRRK2(G2019S) = LRRK2(G2019S) (Homo sapiens (Human), UniProt Q5S007, G2019S); conditions: 10000 nM, read-out: Percent Control
ACVRL1 = ACVRL1 (Homo sapiens (Human), UniProt P37023); conditions: ACVRL1, 10000 nM; read-out: Percent Control
MEK5 = MEK5 (Homo sapiens (Human), UniProt Q13163); conditions: MEK5, 10000 nM; read-out: Percent Control
PHKG1 = PHKG1 (Homo sapiens (Human), UniProt Q16816); conditions: PHKG1, 10000 nM; read-out: Percent Control
CSNK1E = CSNK1E (Homo sapiens (Human), UniProt P49674); conditions: 10000 nM, read-out: Percent Control
FGR = FGR (Homo sapiens (Human), UniProt P09769); conditions: 10000 nM, read-out: Percent Control
EPHB2 = EPHB2 (Homo sapiens (Human), UniProt P29323); conditions: EPHB2, 10000 nM; read-out: Percent Control
FRK = FRK (Homo sapiens (Human), UniProt P42685); conditions: 10000 nM, read-out: Percent Control
PRKG1 = PRKG1 (Homo sapiens (Human), UniProt Q13976); conditions: PRKG1, 10000 nM; read-out: Percent Control
MKNK1 = MKNK1 (Homo sapiens (Human), UniProt Q9BUB5); conditions: MKNK1, 10000 nM; read-out: Percent Control
TYRO3 = TYRO3 (Homo sapiens (Human), UniProt Q06418); conditions: TYRO3, 10000 nM; read-out: Percent Control
FLT3(D835H) = FLT3(D835H) (Homo sapiens (Human), UniProt P36888, D835H); conditions: 10000 nM, read-out: Percent Control
RIOK3 = RIOK3 (Homo sapiens (Human), UniProt O14730); conditions: RIOK3, 10000 nM; read-out: Percent Control
ADCK3 = ADCK3 (Homo sapiens (Human), UniProt Q8NI60); conditions: ADCK3, 10000 nM; read-out: Percent Control
EGFR(T790M) = EGFR(T790M) (Homo sapiens (Human), UniProt P00533, T790M); conditions: 10000 nM, read-out: Percent Control
IRAK1 = IRAK1 (Homo sapiens (Human), UniProt P51617); conditions: read-out: Percent Control
EPHA7 = EPHA7 (Homo sapiens (Human), UniProt Q15375); conditions: EPHA7, 10000 nM; read-out: Percent Control
KIT(L576P) = KIT(L576P) (Homo sapiens (Human), UniProt P10721, L576P); conditions: 10000 nM, read-out: Percent Control
TGFBR1 = TGFBR1 (Homo sapiens (Human), UniProt P36897); conditions: TGFBR1, 10000 nM; read-out: Percent Control
TGFBR1, sequence (P36897 34-503): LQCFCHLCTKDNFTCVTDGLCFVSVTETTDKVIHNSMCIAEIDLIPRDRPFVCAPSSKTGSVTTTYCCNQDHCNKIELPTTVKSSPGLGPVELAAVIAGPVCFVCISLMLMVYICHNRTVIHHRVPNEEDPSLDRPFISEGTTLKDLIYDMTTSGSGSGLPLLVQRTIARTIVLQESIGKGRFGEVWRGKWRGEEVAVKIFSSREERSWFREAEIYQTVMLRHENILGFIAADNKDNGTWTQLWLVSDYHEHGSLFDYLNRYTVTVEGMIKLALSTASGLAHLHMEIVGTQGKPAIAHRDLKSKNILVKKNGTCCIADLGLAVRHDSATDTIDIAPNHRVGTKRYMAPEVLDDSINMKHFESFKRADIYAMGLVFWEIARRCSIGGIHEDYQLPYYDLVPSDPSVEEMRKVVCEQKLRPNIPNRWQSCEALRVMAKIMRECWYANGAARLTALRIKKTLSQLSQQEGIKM

LRRK2(G2019S), sequence (Q5S007 whole entry G2019S): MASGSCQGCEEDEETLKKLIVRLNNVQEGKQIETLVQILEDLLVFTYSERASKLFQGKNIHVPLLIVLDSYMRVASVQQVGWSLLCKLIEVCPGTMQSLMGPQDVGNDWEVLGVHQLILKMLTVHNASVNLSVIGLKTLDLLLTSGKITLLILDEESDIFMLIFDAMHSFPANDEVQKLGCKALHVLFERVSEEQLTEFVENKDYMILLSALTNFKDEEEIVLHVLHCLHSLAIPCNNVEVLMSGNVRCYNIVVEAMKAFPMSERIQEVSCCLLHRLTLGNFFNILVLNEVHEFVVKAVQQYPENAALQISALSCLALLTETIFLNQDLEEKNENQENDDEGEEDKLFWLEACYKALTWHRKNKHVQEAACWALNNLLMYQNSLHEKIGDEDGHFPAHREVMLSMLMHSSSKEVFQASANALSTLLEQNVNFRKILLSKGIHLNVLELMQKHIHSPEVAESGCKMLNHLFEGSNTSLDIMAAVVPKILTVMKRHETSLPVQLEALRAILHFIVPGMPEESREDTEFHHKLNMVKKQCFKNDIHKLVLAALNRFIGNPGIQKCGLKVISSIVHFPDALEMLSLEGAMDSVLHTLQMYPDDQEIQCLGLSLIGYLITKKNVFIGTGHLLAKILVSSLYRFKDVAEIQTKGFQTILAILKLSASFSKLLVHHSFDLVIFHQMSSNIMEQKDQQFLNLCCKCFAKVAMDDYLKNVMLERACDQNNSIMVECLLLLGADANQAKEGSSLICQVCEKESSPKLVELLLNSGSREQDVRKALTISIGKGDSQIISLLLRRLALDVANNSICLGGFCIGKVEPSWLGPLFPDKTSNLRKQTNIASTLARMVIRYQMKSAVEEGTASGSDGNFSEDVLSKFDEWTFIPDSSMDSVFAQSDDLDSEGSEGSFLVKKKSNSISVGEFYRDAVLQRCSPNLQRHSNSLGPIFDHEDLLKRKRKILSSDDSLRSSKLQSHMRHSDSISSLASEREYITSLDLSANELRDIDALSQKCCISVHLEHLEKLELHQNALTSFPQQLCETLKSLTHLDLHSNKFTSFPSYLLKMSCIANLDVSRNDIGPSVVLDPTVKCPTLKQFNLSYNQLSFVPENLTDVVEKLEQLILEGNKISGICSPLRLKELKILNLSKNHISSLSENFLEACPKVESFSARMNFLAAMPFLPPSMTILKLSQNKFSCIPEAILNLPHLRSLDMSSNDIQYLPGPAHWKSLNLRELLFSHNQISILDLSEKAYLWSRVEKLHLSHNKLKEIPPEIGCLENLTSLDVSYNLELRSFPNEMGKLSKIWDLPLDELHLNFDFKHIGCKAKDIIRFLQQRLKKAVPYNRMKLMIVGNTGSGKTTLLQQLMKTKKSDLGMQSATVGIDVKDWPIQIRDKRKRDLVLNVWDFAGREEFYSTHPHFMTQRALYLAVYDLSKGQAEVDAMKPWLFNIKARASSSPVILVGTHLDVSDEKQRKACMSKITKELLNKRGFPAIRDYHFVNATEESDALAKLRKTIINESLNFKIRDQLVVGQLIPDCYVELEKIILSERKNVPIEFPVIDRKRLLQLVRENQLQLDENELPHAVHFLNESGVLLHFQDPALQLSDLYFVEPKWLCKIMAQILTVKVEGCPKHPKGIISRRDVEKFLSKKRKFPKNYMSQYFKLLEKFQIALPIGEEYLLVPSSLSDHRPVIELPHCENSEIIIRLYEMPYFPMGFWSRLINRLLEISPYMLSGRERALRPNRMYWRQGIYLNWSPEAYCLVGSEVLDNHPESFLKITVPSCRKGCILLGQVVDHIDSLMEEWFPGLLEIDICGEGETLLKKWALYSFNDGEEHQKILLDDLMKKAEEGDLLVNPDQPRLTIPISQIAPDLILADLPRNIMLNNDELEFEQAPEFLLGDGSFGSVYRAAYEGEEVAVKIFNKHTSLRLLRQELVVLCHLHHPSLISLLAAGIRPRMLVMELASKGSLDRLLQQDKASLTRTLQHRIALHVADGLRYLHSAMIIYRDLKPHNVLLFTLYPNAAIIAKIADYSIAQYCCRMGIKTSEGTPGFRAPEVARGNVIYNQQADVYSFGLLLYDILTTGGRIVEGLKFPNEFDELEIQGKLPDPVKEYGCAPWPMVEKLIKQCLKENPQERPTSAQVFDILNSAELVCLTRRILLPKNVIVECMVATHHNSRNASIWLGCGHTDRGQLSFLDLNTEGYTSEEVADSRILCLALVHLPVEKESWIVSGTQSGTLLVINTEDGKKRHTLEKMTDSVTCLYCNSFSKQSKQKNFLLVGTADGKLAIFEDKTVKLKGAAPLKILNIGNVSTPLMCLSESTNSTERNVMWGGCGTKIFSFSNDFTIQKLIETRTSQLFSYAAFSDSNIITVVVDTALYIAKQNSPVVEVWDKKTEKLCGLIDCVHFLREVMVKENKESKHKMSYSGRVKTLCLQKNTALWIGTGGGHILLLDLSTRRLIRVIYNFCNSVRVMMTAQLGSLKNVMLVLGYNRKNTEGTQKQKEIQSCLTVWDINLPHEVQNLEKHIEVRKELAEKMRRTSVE
SIK2, sequence (Q9H0K1 whole entry): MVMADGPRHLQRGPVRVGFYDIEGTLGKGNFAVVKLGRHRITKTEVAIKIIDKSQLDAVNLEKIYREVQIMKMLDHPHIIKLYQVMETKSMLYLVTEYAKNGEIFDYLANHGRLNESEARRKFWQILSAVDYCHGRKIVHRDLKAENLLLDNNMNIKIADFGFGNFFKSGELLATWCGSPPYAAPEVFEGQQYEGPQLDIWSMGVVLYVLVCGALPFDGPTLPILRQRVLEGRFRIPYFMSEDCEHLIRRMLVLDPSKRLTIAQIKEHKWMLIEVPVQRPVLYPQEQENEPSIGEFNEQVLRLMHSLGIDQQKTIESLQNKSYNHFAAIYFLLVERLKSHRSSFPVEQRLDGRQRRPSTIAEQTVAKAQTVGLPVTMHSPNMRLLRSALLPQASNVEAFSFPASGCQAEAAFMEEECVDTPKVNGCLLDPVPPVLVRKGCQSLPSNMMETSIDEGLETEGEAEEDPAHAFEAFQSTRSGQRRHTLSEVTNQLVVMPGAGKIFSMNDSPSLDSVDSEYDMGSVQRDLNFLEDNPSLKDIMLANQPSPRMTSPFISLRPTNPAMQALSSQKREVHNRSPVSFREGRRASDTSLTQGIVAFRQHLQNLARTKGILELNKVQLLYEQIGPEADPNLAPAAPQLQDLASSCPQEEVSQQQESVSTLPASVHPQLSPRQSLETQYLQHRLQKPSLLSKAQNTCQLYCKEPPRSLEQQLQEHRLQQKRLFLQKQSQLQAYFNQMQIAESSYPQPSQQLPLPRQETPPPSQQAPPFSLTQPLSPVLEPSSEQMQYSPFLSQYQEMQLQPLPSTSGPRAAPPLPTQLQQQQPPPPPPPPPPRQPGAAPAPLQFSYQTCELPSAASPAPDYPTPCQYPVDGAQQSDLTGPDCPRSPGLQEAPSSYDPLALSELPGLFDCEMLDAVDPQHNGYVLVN
KIT(L576P), sequence (P10721 26-976 L576P): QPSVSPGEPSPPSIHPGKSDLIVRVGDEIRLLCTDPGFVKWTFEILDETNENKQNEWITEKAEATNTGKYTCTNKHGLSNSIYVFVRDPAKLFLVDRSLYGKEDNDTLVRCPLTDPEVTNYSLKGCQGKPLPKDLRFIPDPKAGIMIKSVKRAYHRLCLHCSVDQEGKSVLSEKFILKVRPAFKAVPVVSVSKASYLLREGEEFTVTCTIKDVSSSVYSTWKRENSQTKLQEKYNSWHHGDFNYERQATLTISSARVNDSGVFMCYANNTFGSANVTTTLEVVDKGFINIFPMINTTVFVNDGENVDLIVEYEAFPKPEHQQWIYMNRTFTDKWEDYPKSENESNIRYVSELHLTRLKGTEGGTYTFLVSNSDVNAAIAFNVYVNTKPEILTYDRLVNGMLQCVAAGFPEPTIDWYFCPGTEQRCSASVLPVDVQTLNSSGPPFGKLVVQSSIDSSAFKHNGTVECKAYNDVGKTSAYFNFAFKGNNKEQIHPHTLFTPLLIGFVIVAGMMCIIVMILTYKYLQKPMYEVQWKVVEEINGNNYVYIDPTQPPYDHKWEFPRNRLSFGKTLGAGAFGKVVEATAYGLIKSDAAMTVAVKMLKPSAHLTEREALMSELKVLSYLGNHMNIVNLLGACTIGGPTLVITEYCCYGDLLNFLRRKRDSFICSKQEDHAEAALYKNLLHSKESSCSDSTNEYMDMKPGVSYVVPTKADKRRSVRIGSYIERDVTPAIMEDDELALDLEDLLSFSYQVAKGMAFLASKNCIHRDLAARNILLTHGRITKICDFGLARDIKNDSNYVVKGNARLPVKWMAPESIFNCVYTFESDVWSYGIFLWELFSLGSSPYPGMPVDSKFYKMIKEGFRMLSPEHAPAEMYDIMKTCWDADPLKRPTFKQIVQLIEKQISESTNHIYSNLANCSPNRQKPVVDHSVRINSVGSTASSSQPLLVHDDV

SMILES | remaining binding at 10 µM (LZK) [%] | remaining binding at 10 µM (SgK110) [%] | remaining binding at 10 µM (PIM1) [%] | remaining binding at 10 µM (SIK2) [%] | remaining binding at 10 µM (PRKD3) [%] | remaining binding at 10 µM (INSR) [%] | remaining binding at 10 µM [1] [%] | remaining binding at 10 µM (PFTAIRE2) [%] | remaining binding at 10 µM (MRCKA) [%] | remaining binding at 10 µM (IKK-epsilon) [%] | remaining binding at 10 µM [2] [%] | remaining binding at 10 µM (GSK3A) [%] | remaining binding at 10 µM (RET(V804M)) [%] | remaining binding at 10 µM (TGFBR2) [%] | remaining binding at 10 µM (LRRK2(G2019S)) [%] | remaining binding at 10 µM (ACVRL1) [%] | remaining binding at 10 µM (MEK5) [%] | remaining binding at 10 µM (PHKG1) [%] | remaining binding at 10 µM (CSNK1E) [%] | remaining binding at 10 µM (FGR) [%] | also measured
COc1cc(N2CCC(N3CCN(C)CC3)CC2)ccc1Nc1ncc2c(n1)N(C)c1sc(C)nc1C(=O)N2 [Compound 3, 6-((2-methoxy-4-(4-(4-methylpiperazin-1-yl)piperidin-1-yl)phenyl)amino)-2,4-dimethyl-4,9-dihydro-10H-pyrimido[5,4-b]thiazolo[5,4-e][1,4]diazepin-10-one] | 100 | 86 | 70 | 86 | 75 | 83 | 9.7 | 86 | 98 | 78 | 93 | 82 | 100 | 96 | 100 | 96 | 22 | 78 | 82 | 77 | remaining binding at 10 µM (RDGFRB; RDGFRB): 50%; remaining binding at 10 µM (EPHB2): 53%; remaining binding at 10 µM (FRK): 37%; remaining binding at 10 µM (PRKG1): 93%; remaining binding at 10 µM (MKNK1): 100%; remaining binding at 10 µM (TYRO3): 92%; remaining binding at 10 µM (FLT3(D835H)): 67%; remaining binding at 10 µM (RIOK3): 79%; remaining binding at 10 µM (ADCK3): 54%; remaining binding at 10 µM (EGFR(T790M)): 100%; remaining binding at 10 µM (IRAK1; IRAK1, 10000 nM): 100%; remaining binding at 10 µM (EPHA7): 71%; remaining binding at 10 µM (KIT(L576P)): 47%; remaining binding at 10 µM (TGFBR1): 88%
COc1cc(N2CCC(N3CCN(C)CC3)CC2)ccc1Nc1ncc2c(n1)N(C)c1sc(C)nc1C(=O)N2C [Compound 5, 6-((2-methoxy-4-(4-(4-methylpiperazin-1-yl)piperidin-1-yl)phenyl)amino)-2,4,9-trimethyl-4,9-dihydro-10H-pyrimido[5,4-b]thiazolo[5,4-e][1,4]diazepin-10-one] | 100 | 92 | 97 | 99 | 34 | 40 | 100 | 100 | 84 | 100 | 98 | 100 | 73 | 98 | 21 | 99 | 100 | 84 | 100 | 100 | remaining binding at 10 µM (RDGFRB; PDGFRB): 100%; remaining binding at 10 µM (EPHB2): 99%; remaining binding at 10 µM (FRK): 99%; remaining binding at 10 µM (PRKG1): 100%; remaining binding at 10 µM (MKNK1): 96%; remaining binding at 10 µM (TYRO3): 88%; remaining binding at 10 µM (FLT3(D835H)): 100%; remaining binding at 10 µM (RIOK3): 99%; remaining binding at 10 µM (ADCK3): 88%; remaining binding at 10 µM (EGFR(T790M)): 93%; remaining binding at 10 µM (IRAK1; IRAKI, 10000 nM): 100%; remaining binding at 10 µM (EPHA7): 97%; remaining binding at 10 µM (KIT(L576P)): 100%; remaining binding at 10 µM (TGFBR1): 100%
